# Reference: ChEMBL document CHEMBL1201862, “PubChem BioAssay data set” (2004)
#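 Cells were grown in 96-well plates and exposed to each compound for 48 hours at five concentrations; endpoints were interpolated linearly between bracketing concentrations, or set to the highest concentration if not reached. At the GI50, growth is halved.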 Calls of active or inactive are those of the source. Cut-off read from the data, not from the text of the source: active = GI50 up to about 1.1 µM and inactive = higher.
# Assays:
# Assay in all cases: NCI-60 cell line screen, 48 h
# HOP-62 = system: HOP-62
# SNB-75 = system: SNB-75
# SNB-19 = system: SNB-19
# MOLT-4 = system: MOLT-4
# M14 = system: M14
# SK-MEL-2 = system: SK-MEL-2
# HL-60 = system: HL-60
# NCI-H460 = system: NCI-H460
# KM-20L2 = system: KM-20L2
# HCC 2998 = system: HCC 2998
# SW-620 = system: SW-620
# COLO 205 = system: COLO 205
# HT-29 = system: HT-29
# TK-10 = system: TK-10
# OVCAR-3 = system: OVCAR-3
# HCT-15 = system: HCT-15
# XF498 = system: XF498
# SF-268 = system: SF-268
# HCT-116 = system: HCT-116
# UO-31 = system: UO-31
# OVCAR-8 = system: OVCAR-8
# SF-539 = system: SF-539
# OVCAR-5 = system: OVCAR-5
# 786-0 = system: 786-0
# CCRF-CEM = system: CCRF-CEM
# Malme-3M = system: Malme-3M
# IGROV-1 = system: IGROV-1
# LXFL 529 = system: LXFL 529
# UACC-257 = system: UACC-257
# DLD-1 = system: DLD-1
# KM12 = system: KM12
# DMS-273 = system: DMS-273
# U-251 = system: U-251
# ACHN = system: ACHN
# OVCAR-4 = system: OVCAR-4
# NCI-H522 = system: NCI-H522
# NCI-H226 = system: NCI-H226
# HOP-92 = system: HOP-92
# K562 = system: K562
# SF-295 = system: SF-295
# SR = system: SR
# DMS-114 = system: DMS-114
# M19-MEL = system: M19-MEL
# CAKI-1 = system: CAKI-1
# A549 = system: A549
# SK-MEL-5 = system: SK-MEL-5
# RPMI-8226 = system: RPMI-8226
# NCI-H23 = system: NCI-H23
# SK-MEL-28 = system: SK-MEL-28
# UACC-62 = system: UACC-62
compound,measurement,setting,value
CC[N+](CC)(CC)Cc1cc2ccccc2n1C(=O)OC,GI50,HOP-62,> 100 µM (inactive)
same,GI50,SNB-75,87.9 µM (inactive)
same,GI50,SNB-19,> 100 µM (inactive)
same,GI50,MOLT-4,> 100 µM (inactive)
same,GI50,M14,> 100 µM (inactive)
same,GI50,SK-MEL-2,> 100 µM (inactive)
same,GI50,HL-60,> 100 µM (inactive)
same,GI50,NCI-H460,> 100 µM (inactive)
same,GI50,KM-20L2,> 100 µM (inactive)
same,GI50,HCC 2998,> 100 µM (inactive)
same,GI50,SW-620,> 100 µM (inactive)
same,GI50,COLO 205,> 100 µM (inactive)
same,GI50,HT-29,> 100 µM (inactive)
same,GI50,TK-10,> 100 µM (inactive)
same,GI50,OVCAR-3,70.6 µM (inactive)
same,GI50,HCT-15,> 100 µM
same,GI50,XF498,> 100 µM (inactive)
same,GI50,SF-268,> 100 µM (inactive)
same,GI50,HCT-116,> 100 µM (inactive)
same,GI50,UO-31,> 100 µM (inactive)
same,GI50,OVCAR-8,> 100 µM (inactive)
same,GI50,SF-539,> 100 µM (inactive)
same,GI50,OVCAR-5,> 100 µM (inactive)
same,GI50,786-0,> 100 µM (inactive)
same,GI50,CCRF-CEM,> 100 µM (inactive)
same,GI50,Malme-3M,> 100 µM (inactive)
same,GI50,IGROV-1,> 100 µM (inactive)
same,GI50,LXFL 529,> 100 µM (inactive)
same,GI50,UACC-257,> 100 µM (inactive)
same,GI50,DLD-1,> 100 µM (inactive)
same,GI50,KM12,> 100 µM (inactive)
same,GI50,DMS-273,> 100 µM (inactive)
same,GI50,U-251,> 100 µM (inactive)
same,GI50,ACHN,> 100 µM (inactive)
same,GI50,OVCAR-4,> 100 µM (inactive)
same,GI50,NCI-H522,> 100 µM (inactive)
same,GI50,NCI-H226,> 100 µM (inactive)
same,GI50,HOP-92,> 100 µM (inactive)
same,GI50,K562,> 100 µM (inactive)
same,GI50,SF-295,> 100 µM (inactive)
same,GI50,SR,> 100 µM (inactive)
same,GI50,DMS-114,> 100 µM (inactive)
same,GI50,M19-MEL,> 100 µM (inactive)
same,GI50,CAKI-1,> 100 µM (inactive)
same,GI50,A549,> 100 µM (inactive)
same,GI50,SK-MEL-5,> 100 µM (inactive)
same,GI50,RPMI-8226,> 100 µM (inactive)
same,GI50,NCI-H23,> 100 µM (inactive)
same,GI50,SK-MEL-28,> 100 µM (inactive)
same,GI50,UACC-62,> 100 µM (inactive)
